The subject of assay [1] is onset of bronchitis in infants. The assay is described as follows: Logistic regression: breast milk carbohydrate component concentrations vs onset of bronchitis in infants during first year of life (153 samples). Format: in vivo, human. The settings on record: for Odds ratio: concentration in breast milk vs onset of infant bronchitis within one year, adjusted for sex, siblings, method of delivery, birth weight; for Relationship between concentration and the onset of bronchitis (in words) / Regression coefficient: logistic regression; for Regression coefficient: concentration in breast milk vs onset of infant bronchitis. As for the experimental part:
Various carbohydrate components were measured for 153 breast milk samples, analyzing a relationship with a presence or absence of the onset of bronchitis in infants during the first year of life using a logistic regression.
(§1) Bean Stalk Snow Co., Ltd. Conducted a prospective cohort study (UMIN ID 000015494) from 2014 to 2019 for investigating the relationship between the breast milk components of Japanese and a health status of mothers and children in Japan. In the study, breast milk samples collected from 1,210 mothers and questionnaire results of investigating the health status of mothers and children were used in the study. In addition, 200 samples were randomly selected from the 1,210 samples. The breast milk collected between 1 and 2 months after childbirth was used as the breast milk samples for analysis. Parents filled out questionnaires investigating the health status of their infants six times in total, every two months for one year after birth, and the results were collected. From the questionnaire results, the results were compiled of whether or not the infants were diagnosed with the bronchitis by a doctor within one year after the childbirth. If a description of a presence or absence of the onset of bronchitis was unclear, they were excluded from the study.
(§2) As a result, in the questionnaires conducted six times in total in a year, for 153 samples, questionnaires were answered correctly about whether the infants had been diagnosed with the bronchitis, and the samples became subjects to be analyzed in the study. Of the 153 samples, 18 samples were from infants diagnosed with the bronchitis within one year of birth.
For the 153 breast milk samples, the relationship between the concentrations of N-acetylneuraminic acid, the oligosaccharide, the N-linked glycan, the O-linked glycan, the disialo N-linked glycan A, and the disialo N-linked glycan B and the onset of infant bronchitis was analyzed using the logistic regression. Sex of the infant, a presence or absence of siblings, the method of delivery (natural birth, cesarean section), and a birth weight were used as adjustment factors.

The subject of assay [2] is onset of bronchitis in infants. As to the kind of experiment: Two-group comparison of breast milk concentrations (infants ever vs never contracted bronchitis) and Fisher's exact test at a cut-off concentration. Type of assay: in vivo, human. The following applies: for Concentration in the breast milk that reduces the risk of contracting the bronchitis: cut-off of Fisher's exact test; for Concentration in breast milk consumed by infants who had never contracted bronchitis versus infants who had ever contracted bronchitis: two groups, FIG. 1-5.
Excerpt: as §1, §2
The breast milk samples were divided into two groups, based on whether or not the infants had ever contracted the bronchitis, comparing the total N-acetylneuraminic acids concentrations in the breast milk. […] A distribution range of the total N-acetylneuraminic acids concentrations in the breast milk consumed by the infants who had never contracted the bronchitis was 181-977 mg/L, with a median of 395 mg/L (Table 2). The distribution of the total N-acetylneuraminic acids concentrations was, different from a normal distribution, a distribution spreading out its tail towards its higher end of concentrations. Such a distribution is seen in the distribution of heights and weights of the infants, and the 3rd to 97th percentile of the overall distribution is used as standards when creating growth curves for infants (Infant Physical Development Survey Report 2000). Based on this, the 3rd to 97th percentile was used as a standard range of the total N-acetylneuraminic acids concentrations in the breast milk. A minimum value of the total N-acetylneuraminic acid concentration in the breast milk consumed by the infants who had never contracted the bronchitis was 221 mg/L corresponding to the 3rd percentile of the distribution.

With `CC(=O)N[C@H]1[C@H]([C@H](O)[C@H](O)CO)O[C@@](O[C@H]2[C@@H](O)[C@@H](CO)O[C@@H](O[C@H]3[C@H](O)[C@@H](O)C(O)O[C@@H]3CO)[C@@H]2O)(C(=O)O)C[C@@H]1O` (some centres unmarked) [3′-SL, 3′-sialyllactose, reference compound], in assay [1], the Odds ratio amounted to 0.53; the “Relationship between concentration and the onset of bronchitis (in words)” value was “not observed”; the Regression coefficient is listed as −0.626.
For `CC(=O)N[C@H]1[C@H]([C@H](O)[C@H](O)CO)O[C@@](OC[C@H]2O[C@@H](O[C@H]3[C@H](O)[C@@H](O)[C@H](O)O[C@@H]3CO)[C@H](O)[C@@H](O)[C@H]2O)(C(=O)O)C[C@@H]1O` [6′-SL, 6′-sialyllactose], in assay [2], the “Concentration in the breast milk that reduces the risk of contracting the bronchitis” value was ≥ 135 mg/L and the “Concentration in breast milk consumed by infants who had never contracted bronchitis versus infants who had ever contracted bronchitis” value is reported as “significantly higher”.
Take `CC(=O)N[C@H]1[C@H]([C@H](O)[C@H](O)CO)OC(O)(C(=O)O)C[C@@H]1O` (some centres unmarked) [Total N-acetylneuraminic acid, N-acetylneuraminic acid]: in assay [1], the Odds ratio came out at 0.098; the “Relationship between concentration and the onset of bronchitis (in words)” value was “statistically significant relationship”; the Regression coefficient is reported as −2.32. In assay [2], the “Concentration in the breast milk that reduces the risk of contracting the bronchitis” value is listed as ≥ 246 mg/L and the “Concentration in breast milk consumed by infants who had never contracted bronchitis versus infants who had ever contracted bronchitis” value was “significantly higher”.
On to “Neu5Acα2-6Galβ1-4GlcNAcβ1-2Manαl-3 (Neu5Acα2-6Galβ1-4GlcNAcβ1-2Manα1-6) Manβ1-4GlcNAcβ1-4GlcNAc [Disialo N-linked glycan A]”, for which, in assay [1], the Odds ratio was 0.15 and the Regression coefficient was −1.918. Further, in assay [1] (listed as disialo N-linked glycan A), the Regression coefficient result is “negative”. In addition, in assay [2], the “Concentration in the breast milk that reduces the risk of contracting the bronchitis” value was ≥ 0.313 µmol/L and the “Concentration in breast milk consumed by infants who had never contracted bronchitis versus infants who had ever contracted bronchitis” value is on record as “significantly higher”.
Take “Neu5Acα2-6Galβ1-4GlcNAcβ1-2Manα1-3 (Neu5Acα2-6Galβ1-4GlcNAcβ1-2Manα1-6) Manβ1-4GlcNAcβ1-4 (Fucα1-6) GlcNAc [Disialo N-linked glycan B]”: in assay [1], the Odds ratio was determined as 0.24 and the Regression coefficient is listed as −1.407. Besides, the Regression coefficient entry in assay [1] (listed as disialo N-linked glycan B) is “negative”. In assay [2], the “Concentration in the breast milk that reduces the risk of contracting the bronchitis” value is ≥ 0.245 µmol/L and the “Concentration in breast milk consumed by infants who had never contracted bronchitis versus infants who had ever contracted bronchitis” value was “significantly higher”.

The record behind these values is patent publication US20250360152A1, “NUTRITIONAL COMPOSITION FOR PREVENTING BRONCHITIS” (MEGMILK SNOW BRAND Co., Ltd., priority 2022, published 2025).
